Reference: patent US20070149555A1, “Prophylatic and/or therapeutic agents for chronic musculoskeletal pain” (Kyowa Hakko Kogyo Co., Ltd, priority 2004, published 2007)

Columns and labels:
[1] = test system: acidic physiological saline-induced hyperalgesia model; assay: Preventive effect on development of hyperalgesia in a rat model (acidic physiological saline, von Frey test); type: in vivo; conditions: male SD rats, 3 mg/kg orally once daily for 10 days, measured on the day following the final administration (FIG. 2)
Protocol: Test Example 2: Preventive Effect on Development of Hyperalgesia in a Rat Model The following experiment was carried out according to the method as described in Test Example 1. In this test, male SD rats (Sprague-Dawley rats; 6 weeks of age at the start of the test) were employed as 10 rats for each treatment-group. Under ether anesthesia, 100 μl of physiological saline adjusted to pH 4 with acetic acid was injected to the rat's right gastrocnemius muscle twice at an interval of 5 days. Thirty minutes after the 2nd injection and once daily thereafter, a test compound or solvent was administered repeatedly at a volume of 5 ml/kg to the above rats for a total of 10 days. The test compound was used as a suspension in 0.5% MC aqueous solution and orally administered (a group treated with Test Compound), and in a group to which a solvent was administered 0.5% MC aqueous solution alone was orally administered (a group treated with Solvent). On the day following the final administration, the pain threshold (g) was measured in the same manner as the von Frey test as described in Test Example 1. The above rats were placed in a stainless steel cage (750width×210depth×170height in mm) and accommodated thereto for at least 20 minutes; after that the measurement was conducted. From the above results, the followings were elucidated.

[2] = test system: hyperalgesia rats induced with an acidic physiological saline; assay: Effect for pain relief in a hyperalgesia model of rat (acidic physiological saline-induced hyperalgesia, von Frey test); type: in vivo; conditions: male SD rats, orally administered 5 and 10 mg/kg, 0.5-3 hours after administration (FIG. 1)
Protocol: Test Example 1: Effect for Pain Relief in a Hyperalgesia Model of Rat
An acidic physiological saline-induced hyperalgesia model, which is known as a model of diseases accompanied by chronic musculoskeletal pain was made according to the method described in Muscle & Nerve 24, p. 37-46 (2001) with a slight modification.
In this test, male SD rats (Sprague-Dawley rats; 6 weeks of age at the start of the test) were employed. Under ether anesthesia, 100 μl of physiological saline adjusted to pH 4 with acetic acid was injected to the rat's right gastrocnemius muscle twice at an interval of 5 days. At 10th and 11th days from the 2nd injection, the following test was conducted. […] In this connection, the pain threshold of normal rats was approximately 11 g.
The above hyperalgesia rats induced with an acidic physiological saline were placed in a stainless steel cage (750width×210depth×170height in mm) and accommodated thereto for at least 20 minutes. Thereafter, the pain threshold (g) was determined prior to administration of the test compound (0 hour) and 0.5 hour, 1 hour, 1.5 hours, 2 hours and 3 hours after the administration. […]
Hyperalgesia was evaluated by the von Frey test, and the results were indicated by the thresholds (g). […] The pain threshold (g) was calculated according to the W. J. Dixon's up-down method (Annual Review of Pharmacology and Toxicology, 20, p. 441-462 (1980)).

CCn1c(=O)c2c(nc(/C=C/c3ccc(OC)c(OC)c3)n2C)n(CC)c1=O [Compound 2]
pain threshold (development of hyperalgesia) [1]: no decrease | pain threshold in comparison with that of the group treated with Solvent [2]: greatly increased
